Test results: ChEMBL document CHEMBL5727147, “Pharmaceutical compounds” (2018)

These compounds were tested against T1, Serine/threonine-protein kinase Chk1 (Homo sapiens, UniProt O14757) (assay: Kinase Inhibiting Activity Assay: Chk-1 Kinase Inhibiting ActivityThe compounds of the invention were tested for activity against Chk-1 kinase using the materials and protocols set out below.Reaction Buffer:Base Reaction buffer: 20 mM Hepes (pH 7.5), 10 mM MgCl2, 1 mM EGTA, 0.02% Brij35, 0.02 mg/ml BSA, 0.1 mM Na3VO4, 2 mM DTT, 1% DMSO*Required cofactors are added individually to each kinase reactionReaction Procedure:(i) Prepare indicated substrate in freshly prepared Base Reaction Buffer(ii) Deliver any required cofactors to the substrate solution above(iii) Deliver indicated kinase into the substrate solution and gently mix(iv) Deliver compounds in DMSO into the kinase reaction mixture(v) Deliver 33P-ATP (specific activity 0.01 μCi/μl final) into the reaction mixture to initiate the reaction.(vi) Incubate kinase reaction for 120 minutes at room temperature(vii) Reactions are spotted onto P81 ion exchange paper (Whatman #3698-915)(viii) Wash filters extensively in 0.1% phosphoric acid.(ix) Dry filters and measure counts in scintillation counterKinase Information:CHK-1 Genbank Accession # AF016582Recombinant full length construct, N-terminal GST tagged, purified from insect cells.No special measures were taken to activate this kinase.Final concentration in assay=0.5 nMSubstrate: CHKtidePeptide sequence: [[…]]Final concentration in assay=20 μM).
T1 sequence (O14757 whole entry): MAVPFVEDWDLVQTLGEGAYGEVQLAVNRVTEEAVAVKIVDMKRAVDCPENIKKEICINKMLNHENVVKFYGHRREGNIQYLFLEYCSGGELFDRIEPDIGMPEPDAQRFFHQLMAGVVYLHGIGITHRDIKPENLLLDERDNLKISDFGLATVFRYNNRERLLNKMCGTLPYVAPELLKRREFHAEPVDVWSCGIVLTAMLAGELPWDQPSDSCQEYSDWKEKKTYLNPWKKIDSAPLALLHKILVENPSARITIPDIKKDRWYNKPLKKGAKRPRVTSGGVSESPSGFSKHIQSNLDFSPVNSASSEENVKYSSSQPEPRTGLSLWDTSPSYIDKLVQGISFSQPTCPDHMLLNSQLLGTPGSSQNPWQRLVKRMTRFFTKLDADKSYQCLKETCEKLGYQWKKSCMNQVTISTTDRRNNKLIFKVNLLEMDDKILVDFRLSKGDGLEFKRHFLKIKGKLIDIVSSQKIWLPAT

| Structure (SMILES) | IC50 [nM] |
| --- | --- |
| COc1cc(CNC(=O)C2CC2)ccc1-c1cc(Nc2cnc(C#N)cn2)n[nH]1 | 0.59 |
| COc1cc(OCc2cocn2)ccc1-c1cc(Nc2cnc(C#N)cn2)n[nH]1 | < 1 |
| COc1cc(C2CCCCN2C)ccc1-c1cc(Nc2cnc(C#N)cn2)n[nH]1 (stereo not drawn) | 0.51 |
